pIC50: −log10 of the molar value. Oligonucleotides are written 5' to 3', each unit as a sugar letter and its base; * is a phosphorothioate linkage, no mark a phosphodiester; rarer units and linkages stand in square brackets, end groups in braces. Plain capitals give the bases only. m = 2'-O-methyl; f = 2'-fluoro
Legend:
TMPRSS6 mRNA [1] = test: Dose-response of siRNAs against TMPRSS6 in Hep3B cells; type: cell-based, human; settings: siRNA 100 nM-0.03 nM + 1 μg/ml AtuFECT, two days after transfection, TMPRSS6 mRNA normalized to ApoB, from dose-response curves FIG. 35; for Max inhibition: relative to 100 nM Luciferase-control siRNA
Method: 8000 cells per well were plated in 96-well plates. The following day cells were transfected with siRNA in indicated concentrations (100 nM-0.03 nM) and 1 μg/ml AtuFECT. Two days after transfection cells were lysed and TMPRSS6 mRNA levels were determined by q-RT-PCR. TMPRSS6 mRNA levels were normalized to expression levels of the house keeping gene ApoB. Average inhibition and standard deviation of triplicate values relative to cells treated with 100 nM of a non-targeting Luciferase-control siRNA are shown in FIG. 35.

TMPRSS6 mRNA [2] = test: Reduction of TMPRSS6 mRNA expression by different siRNAs in Hep3B cells (20 nM, 96-well); type: cell-based, human; settings: 20 nM siRNA + 1 μg/ml AtuFECT, two days after transfection, TMPRSS6 mRNA normalized to ApoB, relative to untreated cells
Method: 8000 cells per well were plated in 96-well plates. The following day cells were transfected with 20 nM siRNA and 1 μg/ml AtuFECT. Two days after transfection cells were lysed and TMPRSS6 mRNA levels were determined by q-RT-PCR. TMPRSS6 mRNA levels were normalized to expression levels of the house keeping gene ApoB. An siRNAs against Luciferase was used as non targeting control.

TMPRSS6 mRNA [3] = test: Dose response of TMPRSS6 nucleic acids for inhibition of TMPRSS6 expression in human Hep3B cells; type: cell-based; settings: 30-0.003 nM nucleic acid (Luciferase 30 and 10 nM) + 1 μg/ml AtuFECT, two days, normalized to PTEN
Method: Cells were plated at a cell density of 150,000 cells per 6 well dish. The following day cells were transfected with 1 μg/ml AtuFECT (50:50 formulation of cationic lipid Atufect01 and fusogenic lipid DPhyPE) and different amounts of TMPRSS6 nucleic acids (30; 10; 3; 1; 0.3; 0.1, 0.003 nM, respectively) as depicted by the X-axis of the graph in FIG. 2. For non targeting control samples, cells were transfected with 30 and 10 nM nucleic acid for Luciferase. Two days after the transfection cells were lysed and mRNA levels were determined by q-RT-PCR. TMPRSS6 mRNA levels were normalized to the expression levels of the house keeping gene PTEN. […] Sequences of RNAi molecules are depicted in Table 1.

[4] = target: T1, Asialoglycoprotein receptor (ASGP-R) (Homo sapiens, UniProt P07306+P07307); settings: higher affinity; cited from earlier work
T1 sequence (P07306 1-291): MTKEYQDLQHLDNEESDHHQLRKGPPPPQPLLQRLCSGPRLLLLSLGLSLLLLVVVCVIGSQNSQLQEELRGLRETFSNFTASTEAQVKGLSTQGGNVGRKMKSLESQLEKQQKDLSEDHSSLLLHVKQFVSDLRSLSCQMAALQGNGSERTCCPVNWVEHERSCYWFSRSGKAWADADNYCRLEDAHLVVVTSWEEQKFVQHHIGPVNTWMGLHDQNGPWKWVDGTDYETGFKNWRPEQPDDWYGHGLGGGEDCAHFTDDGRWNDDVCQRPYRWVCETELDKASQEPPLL
T1 sequence (P07307 1-311): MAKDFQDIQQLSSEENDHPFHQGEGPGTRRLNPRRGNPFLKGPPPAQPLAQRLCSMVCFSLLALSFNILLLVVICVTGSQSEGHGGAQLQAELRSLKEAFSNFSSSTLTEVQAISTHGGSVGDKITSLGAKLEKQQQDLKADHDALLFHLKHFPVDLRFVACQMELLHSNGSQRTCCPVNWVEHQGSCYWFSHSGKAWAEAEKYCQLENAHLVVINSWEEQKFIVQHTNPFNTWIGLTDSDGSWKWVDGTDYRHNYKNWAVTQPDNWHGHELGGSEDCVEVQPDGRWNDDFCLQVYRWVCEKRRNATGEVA

**Q.** With “TMPRSS-SR-21: siRNA against TMPRSS6, SEQ ID NO 167/168 (chain 1 mAfGmCfUmGfGmGfGmAfAmGfUmAfCmGfGmGfGmU; chain 2 fAmCfCmCfCmGfUmAfCmUfUmCfCmCfCmAfGmCfU)” as the compound, how does the pIC50 (TMPRSS6 mRNA [1]) read?
**A.** 8.24

**Q.** And the Max inhibition (TMPRSS6 mRNA [1])?
**A.** 100%

**Q.** What about the “kd at 20 nM as shown in FIG. 34” value (TMPRSS6 mRNA [2]) of the same compound?
**A.** 92%

**Q.** With “Luciferase nucleic acid: non targeting control nucleic acid for Luciferase, SEQ ID NO 31/32 (chain 1 UCGAAGUAUUCCGCGUACG; chain 2 CGUACGCGGAAUACUUCGA; listed as RNA, chemistry not given here) [reference compound]” as the compound, how does the “TMPRSS6 mRNA expression” value (TMPRSS6 mRNA [3]) read?
**A.** did not affect TMPRSS6 mRNA levels

**Q.** With “TMPRSS-SR-27: siRNA against TMPRSS6, SEQ ID NO 177/178 (chain 1 mAfGmUfAmGfUmAfGmCfUmGfGmGfGmAfAmGfUmA; chain 2 fUmAfCmUfUmCfCmCfCmAfGmCfUmAfCmUfAmCfU)” as the compound, how does the pIC50 (TMPRSS6 mRNA [1]) read?
**A.** 8.55

**Q.** What about the Max inhibition (TMPRSS6 mRNA [1]) of the same compound?
**A.** 94%

**Q.** And the “kd at 20 nM as shown in FIG. 34” value (TMPRSS6 mRNA [2])?
**A.** 84%

**Q.** Which results are given for “TMPRSS-hc-23: siRNA against TMPRSS6, SEQ ID NO 207/208 (chain 1 CUGUUCUGGAUCGUCCACU; chain 2 AGUGGACGAUCCAGAACAG; chain 1: sugars from the 5' end mfmfmfmfmfmfmfmfmfm, backbone not given here; chain 2: sugars from the 5' end fmfmfmfmfmfmfmfmfmf, backbone not given here)”?
**A.** pIC50 (TMPRSS6 mRNA [1]): 8.34; Max inhibition (TMPRSS6 mRNA [1]): 83%; kd at 20 nM as shown in FIG. 34 (TMPRSS6 mRNA [2]): 70%

**Q.** With “TMPRSS-hc-22: siRNA against TMPRSS6, SEQ ID NO 205/206 (chain 1 mAfGmAfUmCfCmUfGmGfGmAfGmAfAmGfUmGfGmC; chain 2 fGmCfCmAfCmUfUmCfUmCfCmCfAmGfGmAfUmCfU)” as the compound, how does the pIC50 (TMPRSS6 mRNA [1]) read?
**A.** 8.09

**Q.** What about the Max inhibition (TMPRSS6 mRNA [1]) of the same compound?
**A.** 99%

**Q.** And the “kd at 20 nM as shown in FIG. 34” value (TMPRSS6 mRNA [2])?
**A.** 73%

**Q.** With “TMPRSS-hc-19: siRNA against TMPRSS6, SEQ ID NO 201/202 (chain 1 mGfAmAfUmAfGmAfCmGfGmAfGmCfUmGfGmAfGmU; chain 2 fAmCfUmCfCmAfGmCfUmCfCmGfUmCfUmAfUmUfC)” as the compound, how does the pIC50 (TMPRSS6 mRNA [1]) read?
**A.** 8.21

**Q.** And the Max inhibition (TMPRSS6 mRNA [1])?
**A.** 100%

**Q.** What about the “kd at 20 nM as shown in FIG. 34” value (TMPRSS6 mRNA [2]) of the same compound?
**A.** 89%

**Q.** With “TMPRSS6-hcmr-24: siRNA against TMPRSS6, SEQ ID NO 209/210 (chain 1 mCfUmCfAmCfCmUfUmGfAmAfGmGfAmCfAmCfCmU; chain 2 fAmGfGmUfGmUfCmCfUmUfCmAfAmGfGmUfGmAfG)” as the compound, how does the pIC50 (TMPRSS6 mRNA [1]) read?
**A.** 9.10

**Q.** And the Max inhibition (TMPRSS6 mRNA [1])?
**A.** 73%

**Q.** What about the “kd at 20 nM as shown in FIG. 34” value (TMPRSS6 mRNA [2]) of the same compound?
**A.** 70%

**Q.** With “TMPRSS-SR-5: siRNA against TMPRSS6, strands hcTMP-SR5-A/B, SEQ ID NO 141/142 (chain 1 mGfGmUfGmCfUmGfAmGfGmAfCmGfCmCfCmUfGmG; chain 2 fCmCfAmGfGmGfCmGfUmCfCmUfCmAfGmCfAmCfC)” as the compound, how does the pIC50 (TMPRSS6 mRNA [1]) read?
**A.** 8.08

**Q.** What about the Max inhibition (TMPRSS6 mRNA [1]) of the same compound?
**A.** 100%

**Q.** What about the “kd at 20 nM as shown in FIG. 34” value (TMPRSS6 mRNA [2]) of the same compound?
**A.** 85%

**Q.** With “TMPRSS-hc-18: siRNA against TMPRSS6, SEQ ID NO 199/200 (chain 1 UUUUCUCUUGGAGUCCUCA; chain 2 UGAGGACUCCAAGAGAAAA; chain 1: sugars from the 5' end mfmfmfmfmfmfmfmfmfm, backbone not given here; chain 2: sugars from the 5' end fmfmfmfmfmfmfmfmfmf, backbone not given here)” as the compound, how does the pIC50 (TMPRSS6 mRNA [1]) read?
**A.** 8.34

**Q.** What about the Max inhibition (TMPRSS6 mRNA [1]) of the same compound?
**A.** 95%

**Q.** What about the “kd at 20 nM as shown in FIG. 34” value (TMPRSS6 mRNA [2]) of the same compound?
**A.** 90%

**Q.** For “TMPRSS6-hcm9: siRNA, SEQ ID NO 17/18, alternating 2′OMe/2′F; TMP01 = strands TMPJH01A/TMPJH01B, same chemistry (chain 1 AACCAGAAGAAGCAGGUGA; chain 2 UCACCUGCUUCUUCUGGUU; chain 1: sugars from the 5' end mfmfmfmfmfmfmfmfmfm, backbone not given here; chain 2: sugars from the 5' end fmfmfmfmfmfmfmfmfmf, backbone not given here; further chemistry not fully specified)”, which “TMPRSS6 mRNA expression” value (TMPRSS6 mRNA [3]) is on record?
**A.** highest reduction of TMPRSS6 mRNA expression

**Q.** Which results are given for “TMPRSS-hcm-25: siRNA against TMPRSS6, SEQ ID NO 211/212 (chain 1 AGUUUCUCUCAUCCAGGCC; chain 2 GGCCUGGAUGAGAGAAACU; chain 1: sugars from the 5' end mfmfmfmfmfmfmfmfmfm, backbone not given here; chain 2: sugars from the 5' end fmfmfmfmfmfmfmfmfmf, backbone not given here)”?
**A.** pIC50 (TMPRSS6 mRNA [1]): 8.34; Max inhibition (TMPRSS6 mRNA [1]): 87%; kd at 20 nM as shown in FIG. 34 (TMPRSS6 mRNA [2]): 85%

**Q.** With “TMPRSS-hcr-26: siRNA against TMPRSS6, SEQ ID NO 213/214 (chain 1 GUACCCUAGGAAAUACCAG; chain 2 CUGGUAUUUCCUAGGGUAC; chain 1: sugars from the 5' end mfmfmfmfmfmfmfmfmfm, backbone not given here; chain 2: sugars from the 5' end fmfmfmfmfmfmfmfmfmf, backbone not given here)” as the compound, how does the pIC50 (TMPRSS6 mRNA [1]) read?
**A.** 8.46

**Q.** And the Max inhibition (TMPRSS6 mRNA [1])?
**A.** 100%

**Q.** And the “kd at 20 nM as shown in FIG. 34” value (TMPRSS6 mRNA [2])?
**A.** 98%

**Q.** With “TMPRSS-SR-16: siRNA against TMPRSS6, strands hcTMP-SR16-A/B, SEQ ID NO 158 (as printed)/160 (chain 1 CUCAGCACCCCGUACUUCC; chain 2 UCAGCACCCCGUACUUCCC; listed as RNA, chemistry not fully specified)” as the compound, how does the pIC50 (TMPRSS6 mRNA [1]) read?
**A.** 8.08

**Q.** What about the Max inhibition (TMPRSS6 mRNA [1]) of the same compound?
**A.** 100%

**Q.** What about the “kd at 20 nM as shown in FIG. 34” value (TMPRSS6 mRNA [2]) of the same compound?
**A.** 88%

**Q.** Which “Affinity of ASGP-R for GalNAc relative to D-Gal” value [4] does the source give for `CC(=O)N[C@H]1C(O)O[C@H](CO)[C@H](O)[C@@H]1O` (stereo partly drawn) [N-Acetyl-D-Galactosylamine (GalNAc), 2-(Acetylamino)-2-deoxy-D-galactopyranose] here?
**A.** 50 fold

**Q.** Which results are given for “TMPRSS-hc-16: siRNA against TMPRSS6, SEQ ID NO 195/196 (chain 1 mUfAmUfUmCfCmAfAmAfGmGfGmCfAmGfCmUfGmA; chain 2 fUmCfAmGfCmUfGmCfCmCfUmUfUmGfGmAfAmUfA)”?
**A.** pIC50 (TMPRSS6 mRNA [1]): 8.11; Max inhibition (TMPRSS6 mRNA [1]): 100%; kd at 20 nM as shown in FIG. 34 (TMPRSS6 mRNA [2]): 91%

**Q.** What does the source list for “TMPRSS-hc-17: siRNA against TMPRSS6, SEQ ID NO 197/198 (chain 1 AUCUUCUGGGCUUUGGCGG; chain 2 CCGCCAAAGCCCAGAAGAU; chain 1: sugars from the 5' end mfmfmfmfmfmfmfmfmfm, backbone not given here; chain 2: sugars from the 5' end fmfmfmfmfmfmfmfmfmf, backbone not given here)”?
**A.** pIC50 (TMPRSS6 mRNA [1]): 8.62; Max inhibition (TMPRSS6 mRNA [1]): 82%; kd at 20 nM as shown in FIG. 34 (TMPRSS6 mRNA [2]): 79%

Reference: US20250025488A1, “NUCLEIC ACIDS FOR INHIBITING EXPRESSION OF TMPRSS6 AND IRON CHELATORS” (SILENCE THERAPEUTICS GMBH, priority 2018, published 2025)
